Results as given in PubChem BioAssay (NCI).
Converted amounts (≈) assume the structure as drawn.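 Cultured in 96-well plates, cells were exposed to test compound for 48 hours across five concentrations. GI50 is the concentration that inhibits growth by half. The concentration for full growth arrest is given as TGI.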

How the values were obtained:
Experiment in all cases: NCI-60 cell line screen, 48 h; in the data active = GI50 below about 0.43 µM; inactive = the rest
[1] = tested on: HOP-62 NSCLC
[2] = tested on: NCI-H226 lung
[3] = tested on: HS 578T breast
[4] = tested on: HCT-116 colon
[5] = tested on: RPMI-8226 leukemia
[6] = tested on: SNB-75 CNS
[7] = tested on: MDA-MB-231 breast
[8] = tested on: A498 renal
[9] = tested on: SN12C renal
[10] = tested on: SR leukemia
[11] = tested on: EKVX NSCLC
[12] = tested on: IGROV1 ovarian
[13] = tested on: RXF 393 renal
[14] = tested on: HL-60(TB) leukemia
[15] = tested on: HOP-92 NSCLC
[16] = tested on: T-47D breast
[17] = tested on: UO-31 renal
[18] = tested on: HCC-2998 colon
[19] = tested on: HT29 colon
[20] = tested on: NCI/ADR-RES ovarian
[21] = tested on: MOLT-4 leukemia
[22] = tested on: M14 melanoma
[23] = tested on: NCI-H23 lung
[24] = tested on: SF-539 CNS
[25] = tested on: TK-10 renal
[26] = tested on: CAKI-1 renal
[27] = tested on: OVCAR-3 ovarian
[28] = tested on: CCRF-CEM leukemia
[29] = tested on: MDA-MB-435
[30] = tested on: A549 NSCLC
[31] = tested on: PC-3 prostate
[32] = tested on: OVCAR-5 ovarian
[33] = tested on: SK-MEL-5 melanoma
[34] = tested on: MALME-3M melanoma
[35] = tested on: ACHN renal
[36] = tested on: U251 CNS
[37] = tested on: BT-549 breast
[38] = tested on: HCT-15 colon
[39] = tested on: LOX IMVI melanoma
[40] = tested on: SF-268 CNS
[41] = tested on: 786-0 renal
[42] = tested on: SNB-19 CNS
[43] = tested on: NCI-H460 lung
[44] = tested on: SK-OV-3 ovarian
[45] = tested on: SF-295 CNS
[46] = tested on: MCF7 breast
[47] = tested on: KM12 colon
[48] = tested on: DU-145 prostate
[49] = tested on: UACC-62 melanoma
[50] = tested on: UACC-257 melanoma
[51] = tested on: SK-MEL-28 melanoma
[52] = tested on: SW-620 colon
[53] = tested on: OVCAR-8 ovarian
[54] = tested on: OVCAR-4 ovarian
[55] = tested on: COLO 205 colon

Nc1nccc2c([N+](=O)[O-])cccc12
48.8 µg/mL: TGI [11]
inactive: GI50 [1] 61.5 µg/mL | GI50 [2] 87.4 µg/mL | GI50 [3] 52 µg/mL (≈ 275 µM) | GI50 [4] 84.3 µg/mL | GI50 [5] 40.4 µg/mL | GI50 [6] 55.3 µg/mL | GI50 [7] 92 µg/mL | GI50 [8] 31.7 µg/mL (≈ 168 µM) | GI50 [9] 92.9 µg/mL | GI50 [10] 25.7 µg/mL | GI50 [11] 5.93 µg/mL (≈ 31.3 µM) | GI50 [12] 86.3 µg/mL | GI50 [13] 87.4 µg/mL | GI50 [14] 78.3 µg/mL | GI50 [15] 21.4 µg/mL | GI50 [16] 77.1 µg/mL | GI50 [17] 53.4 µg/mL

Cc1ccc(C2CC(c3ccc(Nc4ccnc5cc(Cl)ccc45)cc3)=NN2C=O)cc1 (configuration not stated)
> 100 µM: TGI [18] | TGI [1] | TGI [19] | TGI [20] | TGI [2] | TGI [21] | TGI [4] | TGI [22] | TGI [23] | TGI [24] | TGI [25] | TGI [5] | TGI [26] | TGI [27] | TGI [6] | TGI [28] | TGI [29] | TGI [30] | TGI [7] | TGI [31] | TGI [32] | TGI [33] | TGI [34] | TGI [35] | TGI [36] | TGI [9] | TGI [37] | TGI [38] | TGI [39] | TGI [40] | TGI [41] | TGI [42] | TGI [43] | TGI [44] | TGI [12] | TGI [45] | TGI [46] | TGI [47] | TGI [48] | TGI [49] | TGI [50] | TGI [13] | TGI [15] | TGI [51] | TGI [16] | TGI [52] | TGI [53] | TGI [17] | TGI [54] | TGI [55]
inactive: GI50 [18] 7.44 µM | GI50 [1] > 100 µM | GI50 [19] 6.09 µM | GI50 [20] 5.22 µM | GI50 [2] > 100 µM | GI50 [21] 5.13 µM | GI50 [4] 25.2 µM | GI50 [22] 6.88 µM | GI50 [23] 6.93 µM | GI50 [24] > 100 µM | GI50 [25] > 100 µM | GI50 [5] 2.18 µM | GI50 [26] > 100 µM | GI50 [27] 6.82 µM | GI50 [6] > 100 µM | GI50 [28] 2.25 µM | GI50 [29] 1.95 µM | GI50 [30] 9.86 µM | GI50 [7] 6.09 µM | GI50 [31] 4.61 µM | GI50 [32] > 100 µM | GI50 [33] 1.74 µM | GI50 [34] > 100 µM | GI50 [35] 3.27 µM | GI50 [36] > 100 µM | GI50 [9] 7.23 µM | GI50 [37] 5.64 µM | GI50 [10] 3.18 µM | GI50 [38] 2.78 µM | GI50 [39] 4.11 µM | GI50 [40] 8.61 µM | GI50 [41] 50.9 µM | GI50 [42] > 100 µM | GI50 [43] > 100 µM | GI50 [44] > 100 µM | GI50 [12] 26.6 µM | GI50 [45] 4 µM | GI50 [46] 8.39 µM | GI50 [47] 6.64 µM | GI50 [48] > 100 µM | GI50 [49] 4.13 µM | GI50 [50] > 100 µM | GI50 [13] 4.89 µM | GI50 [14] 2.27 µM | GI50 [15] 2.14 µM | GI50 [51] > 100 µM | GI50 [16] 1.65 µM | GI50 [52] > 100 µM | GI50 [53] > 100 µM | GI50 [17] 5.49 µM | GI50 [54] 5.15 µM | GI50 [55] 4.59 µM
10.2 µM: TGI [10]
6.21 µM: TGI [14]
